From US9968637B2, “Dopaminergic neurons differentiated from pluripotent stem cells and uses thereof” (THE MCLEAN HOSPITAL CORPORATION, priority 2010, dated 2018)

Columns and labels:
[1] = tested on: human ES cell-derived neural progenitor cells; experiment: Quantitative PCR transcriptional profile after differentiation with retinoic acid
[2] = tested on: human ES cell-derived FOXA2 expressing neural progenitor cells; experiment: Immunocytochemistry and cell counts of FOXA2 expressing DA neurons at DIV49; assay type: cell-based
Procedure: Media were changed every 2 days.
Neural progenitor cells were differentiated toward the DA neuron phenotype with mouse sonic hedgehog (Shh-N), human activated sonic hedgehog (C24II SHH-N), mouse fibroblast growth factor 8b (FGF8b), human FGF8A (all from R&D Systems, Inc.), 20 ng/ml brain derived neurotrophic factor (BDNF) (PeproTech EC Ltd), 1 ng/ml transforming growth factor type β3 (TGF-β3) (Calbiochem, San Diego, Calif.), 10 ng/ml glial cell line-derived neurotrophic factor (GDNF), 0.5 mM dibutyryl cAMP, and 0.2 mM ascorbic acid (AA) (all from Sigma-Aldrich). After 21 days (Day 35) cells were passaged using Tryple (Invitrogen Corporation) and spun at 1,000 rpm for 5 minutes. Cells were resuspended in N2 medium and plated again at a density of approximately 1,000,000-2,000,000 cells per well (24 well plate) on polyornithine/laminin-coated dishes in the presence of BDNF, AA, SHH, and FGF8. After an additional 7 days of culture (DIV42), cells were differentiated until Day 49 without SHH and FGF8 but in the presence of BDNF, AA, cAMP, GDNF, and TGF-β3.
Cells were fixed in 4% paraformaldehyde and analyzed by indirect immunofluorescence (Sonntag et al., 2005). Fluorescent signals were examined using an LSM510 Meta confocal microscope equipped with ultraviolet, argon, and helium-neon lasers (Carl Zeiss, Thornwood, N.Y.). […]
Quantitative analysis of immunocytochemistry was performed on randomly selected confocal fields from at least two independent differentiation experiments. In each field, images of separate channels (Hoechst, 488, 568, 594) were acquired at 40× magnification on an integrated confocal microscope (LSM510/Meta, Carl Zeiss) and stereology workstation (StereoInvestigator, MBF Bioscience, Inc., Williston, Vt.), where images of cells in independent channels and merged images were counted.

CC1=C(/C=C/C(C)=C/C=C/C(C)=C/C(=O)O)C(C)(C)CCC1 [RA, all-trans retinoic acid]
OTX2, PAX2 and HOXB1 levels ([1]; 10^-6 M and 10^-7 M RA, 22 days of differentiation, relative to conditions without RA): reduced OTX2 and PAX2 levels and increased HOXB1 levels | increase of expression levels of the midbrain transcription factor EN1 ([1]; 10^-8 M RA, 22 days of differentiation, relative to conditions without RA): more than 2000 fold | expression levels of the ventral neural transcription factor FOXA2 ([1]; all RA conditions tested (0, 10^-6 to 10^-9 M)): consistently low

B1: WNT1: secreted signaling protein encoded by the human WNT1 proto-oncogene; recombinant (protein, UniProt P04628 28-370, looked up)
Proto-oncogene Wnt-1: ANSSGRWWGIVNVASSTNLLTDSKSLQLVLEPSLQLLSRKQRRLIRQNPGILHSVSGGLQSAVRECKWQFRNRRWNCPTAPGPHLFGKIVNRGCRETAFIFAITSAGVTHSVARSCSEGSIESCTCDYRRRGPGGPDWHWGGCSDNIDFGRLFGREFVDSGEKGRDLRFLMNLHNNEAGRTTVFSEMRQECKCHGMSGSCTVRTCWMRLPTLRAVGDVLRDRFDGASRVLYGNRGSNRASRAELLRLEPEDPAHKPPSPHDLVYFEKSPNFCTYSGRLGTAGTAGRACNSSSPALDGCELLCCGRGHRTRTQRVTERCNCTFHWCCHVSCRNCTHTRVLHECL
cells coexpressing FOXA2, TH and β-tubulin ([2]; DIV49, cultures grown without WNT1 during first 14 days): did not contain cells that coexpressed FOXA2, TH, and β-tubulin

B2: Noggin: recombinant Noggin protein (R&D Systems) (protein, UniProt Q13253 28-232, looked up)
Noggin: QHYLHIRPAPSDNLPLVDLIEHPDPIFDPKEKDLNETLLRSLLGGHYDPGFMATSPPEDRPGGGGGAAGGAEDLAELDQLLRQRPSGAMPSEIKGLEFSEGLAQGKKQRLSKKLRRKLQMWLWSQTFCPVLYAWNDLGSRFWPRYVKVGSCFSKRSCSVPEGMVCKPSKSVHLTVLRWRCQRRGGQRCGWIPIQYPIISECKCSC
cells coexpressing FOXA2, TH and β-tubulin ([2]; DIV49, cultures grown with Noggin alone during first 14 days): did not contain cells that coexpressed FOXA2, TH, and β-tubulin | cells coexpressing FOXA2, TH and β-tubulin ([2]; DIV49, cultures grown with or without Noggin during first 14 days (with WNT1)): contained cells that coexpressed FOXA2, TH and β-tubulin
